Data set [1] can be described thus: Ratio of drug concentration in Tg2576 mouse brain to plasma at 1 to 30 mg/kg, po. It is filed as ADME, organism-based. The following applies: dose 1-30 mg/kg, read-out: BPR.
Data set [2] addresses Gamma-secretase. In words: Inhibition of gamma-secretase (unknown origin) assessed as inhibition of Amyloid beta 42 production by cell-free assay. In kind it is protein-complex assay, Homo sapiens.
Data set [3] is described as follows: Toxicity in Sprague-Dawley rat assessed as maximum tolerated dose administered orally upto 28 days consecutively. Particulars: in vivo, route po, time < 28 day.
The target of data set [4] is Gamma-secretase. Nature of the data set: Inhibition of gamma-secretase (unknown origin) assessed as inhibition of Amyloid beta 40 production by cell-free assay. In kind it is protein-complex assay, Homo sapiens.
Data set [5] can be described thus: Metabolic stability in human liver microsomes assessed as half life. In kind it is ADME, Microsome. A general note: Liver microsomes are vesicles of endoplasmic reticulum, rich in cytochrome P450 enzymes.
For data set [6], the species on record is Homo sapiens. In words: Selectivity ratio, ratio of IC50 for gamma-secretase (unknown origin) to IC50for Notch (unknown origin).
Data set [7] in a line: Oral bioavailability in rat. In kind it is ADME, organism-based. Particulars: in vivo.
Data set [8] is described as follows: Half life in rat. It is filed as ADME. The following applies: in vivo.
A short description of data set [9]: Modulation of gamma-secretase in human H4 cells expressing APPswe mutant assessed as reduction in amyloid beta 42 by ELISA. In kind it is cell-based.
Data set [10] has as its system Mus musculus. In words: Antialzheimer activity in Tg2576 mouse model assessed as decrease in amyloid beta 40 level at 10 mg/kg measured on day 8. In kind it is functional. Further details: scale not given: the % may be the effect or the level left. Particulars: time 8 day.
Data set [11] in a line: Inhibition of Notch in human H4 cells. In kind it is cell-based.
Data set [12] relates to Mus musculus. In words: Antialzheimer activity in Tg2576 mouse model assessed as decrease in amyloid beta 42 level at 10 mg/kg measured on day 8. It is filed as functional. Further details: scale not given: the % may be the effect or the level left. The following applies: time 8 day.
The target in data set [13] is Gamma-secretase. Nature of the data set: Inhibition of gamma-secretase in human H4 cells assessed as reduction in amyloid beta 42. In kind it is cell-based.
Data set [14] has as its system Mus musculus. Nature of the data set: Modulation of gamma secretase in hippocampus of C57BL mouse assessed as reduction in amyloid beta 42 at 10 mg/kg, po measured for 0.5 to 18 hrs by ELISA relative to control. The following applies: filed as modulator, time 0.5-18 hrs. In kind it is organism-based. (An ELISA detects its analyte on a solid surface through an enzyme-linked reagent.)

Data set [15] deals with Mus musculus. In words: Modulation of gamma secretase in hippocampus of C57BL mouse assessed as reduction in amyloid beta 42 at 3 mg/kg, po measured for 0.5 to 18 hrs by ELISA relative to control. It is filed as organism-based. Further details: scale not given: the % may be the effect or the level left. Particulars: time 0.5-18 hrs.
The target in data set [16] is Amyloid-beta precursor protein (Homo sapiens, UniProt P05067). Nature of the data set: Modulation of amyloid beta 42 in human H4 cells expressing APP751 incubated overnight by ELISA. In kind it is cell-based.
Data set [17] in a line: Inhibition of Notch (unknown origin) by cell-based assay. The following applies: Homo sapiens.
The nature of data set [18]: Inhibition of amyloid beta (unknown origin) production. Further details: species or system Homo sapiens.
Data set [19] can be described thus: Inhibition of Notch cleavage in transgenic HEK293 cells. In kind it is cell-based. Particulars: Homo sapiens.

Chain of Amyloid-beta precursor protein (P05067 whole entry): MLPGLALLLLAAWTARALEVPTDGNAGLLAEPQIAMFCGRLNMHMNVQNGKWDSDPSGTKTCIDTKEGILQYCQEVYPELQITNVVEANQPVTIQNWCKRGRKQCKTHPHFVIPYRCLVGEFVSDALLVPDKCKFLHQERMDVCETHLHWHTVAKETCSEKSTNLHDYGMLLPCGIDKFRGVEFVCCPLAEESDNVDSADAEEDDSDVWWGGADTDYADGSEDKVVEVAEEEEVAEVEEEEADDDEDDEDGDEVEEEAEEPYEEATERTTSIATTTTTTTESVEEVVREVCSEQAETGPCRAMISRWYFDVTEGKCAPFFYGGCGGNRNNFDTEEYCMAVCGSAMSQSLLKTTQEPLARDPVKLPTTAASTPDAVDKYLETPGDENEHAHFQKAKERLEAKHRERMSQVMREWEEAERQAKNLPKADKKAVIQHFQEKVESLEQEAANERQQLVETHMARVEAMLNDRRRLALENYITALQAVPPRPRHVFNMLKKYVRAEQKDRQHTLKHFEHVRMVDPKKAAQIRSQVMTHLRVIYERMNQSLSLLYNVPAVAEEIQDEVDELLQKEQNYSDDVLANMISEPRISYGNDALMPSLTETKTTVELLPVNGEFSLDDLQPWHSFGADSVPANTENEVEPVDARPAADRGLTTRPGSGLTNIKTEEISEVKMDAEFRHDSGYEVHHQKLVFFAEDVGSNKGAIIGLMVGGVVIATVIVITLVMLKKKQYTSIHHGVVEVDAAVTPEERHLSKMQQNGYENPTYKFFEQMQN

The term EC50 denotes the midpoint of the concentration-response curve. By MTD is commonly meant the largest dose that counted as tolerated. Broadly, the half-life is the time in which the quantity being followed falls by half. `O=S(=O)(N[C@H](CO)C(C(F)(F)F)C(F)(F)F)c1ccc(Cl)s1` [BEGACESTAT]: in data set [1], the Kp was over 1. Besides, the values for the EC50 in data set [2] and in data set [4] were 12.4 nM and 14.8 nM, respectively. Further, in [3], the MTD at 672 h was found to be 2000 mg/kg/day. Also, the half-life in data set [5] amounted to 1.5 h. Further, the Ratio IC50 in data set [6] is 16.8.
As a reminder, the bioavailability is the share of a dose that reaches the circulation, judged against a reference dose that is usually intravenous. By IC50 is commonly meant the concentration that gives 50% inhibition. On to `O=C(O)C1(c2ccc(-c3ccc(Cl)c(Cl)c3)c(F)c2)CC1`, for which the bioavailability in data set [7] was 50%. Moreover, the half-life in [8] was 20 h. In addition, the IC50 in data set [9] turned out to be 3600 nM.
For `CC(C)[C@H](O)C(=O)N[C@@H](C)C(=O)N[C@@H]1C(=O)N(C)CCc2ccccc21`, the Activity in [10] and in data set [12] was 22% in each case. In addition, the IC50 was 14.1 nM in [11] and 10.9 nM in [13].
A word on the inhibition: it is the relative decrease from the control value, in per cent. With `COc1cc(-c2nnc3n2CCC[C@]3(Oc2cc(F)c(F)c(F)c2)C(C)(C)O)ccc1-c1cnc(C)o1`, the inhibition in data set [14] is 46.5%. The Activity in data set [15] came to 23.2%.
Regarding `COc1nc(C2=NOC[C@H](c3cc4ccccc4o3)N2)ccc1-n1cnc(C)c1`, in data set [16], the response was half-maximal at 35 nM (EC50).
In turn, `C[C@H](NC(=O)CCC(F)(F)F)C(=O)N[C@@H]1C(=O)N(CCO)c2ncccc2-c2ccccc21` had an IC50 in data set [17] of 0.41 nM.
In the case of `C[C@H](NC(=O)[C@@H](O)c1cc(F)cc(F)c1)C(=O)N[C@@H]1C(=O)N(C)c2ccccc2-c2ccccc21`, the IC50 in data set [18] was 0.082 nM; in data set [19] it was 0.39 nM.

The values above are taken from ChEMBL document CHEMBL5126536, “Small molecules targeting γ-secretase and their potential biological applications” (Eur J Med Chem, 2022).
